Paper PMC6009911, “Inhibition of human cytochromes P450 2A6 and 2A13 by flavonoids, acetylenic thiophenes and sesquiterpene lactones from Pluchea indica and Vernonia cinerea” (Journal of Enzyme Inhibition and Medicinal Chemistry, 2017)
Like-named read-outs stand apart in the source and are kept apart here. Marks after values point to notes of the source that are not given here.

How the values were obtained:
CYP2A13 [1] = molecular target: T1, CYP2A13 (Homo sapiens, UniProt Q16696); assay: Mechanism-based (time- and NADPH-dependent) inactivation of CYP2A13; assay type: biochemical; settings: pre-incubation 0-30 min with NADPH
T1 construct: made in house
T1 sequence (Q16696 1-494): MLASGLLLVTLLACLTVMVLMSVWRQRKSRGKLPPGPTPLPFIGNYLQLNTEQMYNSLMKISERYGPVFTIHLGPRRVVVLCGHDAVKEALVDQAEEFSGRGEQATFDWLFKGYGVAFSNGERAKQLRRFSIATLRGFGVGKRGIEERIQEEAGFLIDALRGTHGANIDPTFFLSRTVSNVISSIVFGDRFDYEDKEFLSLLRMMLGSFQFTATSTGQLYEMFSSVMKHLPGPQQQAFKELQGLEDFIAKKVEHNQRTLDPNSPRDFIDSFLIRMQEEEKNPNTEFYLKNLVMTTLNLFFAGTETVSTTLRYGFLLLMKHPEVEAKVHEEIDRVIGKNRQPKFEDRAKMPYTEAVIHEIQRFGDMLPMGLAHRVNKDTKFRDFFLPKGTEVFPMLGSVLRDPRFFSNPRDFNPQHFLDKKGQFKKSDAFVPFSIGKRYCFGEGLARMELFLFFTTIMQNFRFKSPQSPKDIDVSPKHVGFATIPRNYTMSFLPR
Procedure: (§1) MBI requires NADPH and time to generate reactive intermediate as inhibitor and ultimately inactivates the enzyme. MBI was evaluated by pre-incubation with each test inhibitor in the reaction at different time periods (0, 10, 20 and 30 min) in the presence of NADPH for time-dependent assay, as described. The apparent inactivation constants, KI and Kinact, were obtained from double reciprocal plots of kobs versus inhibitor concentrations by linear regression analysis on GraphPad Prism 5. Methoxsalen was used as a control mechanism-based inhibitor for time- and NADPH-dependent inhibition assays.

CYP2A6 [2] = molecular target: T2, CYP2A6 (Homo sapiens, UniProt P11509); set-up: made in house; method as in PMID 25857233; settings: cited from earlier work
T2 sequence (P11509 1-494): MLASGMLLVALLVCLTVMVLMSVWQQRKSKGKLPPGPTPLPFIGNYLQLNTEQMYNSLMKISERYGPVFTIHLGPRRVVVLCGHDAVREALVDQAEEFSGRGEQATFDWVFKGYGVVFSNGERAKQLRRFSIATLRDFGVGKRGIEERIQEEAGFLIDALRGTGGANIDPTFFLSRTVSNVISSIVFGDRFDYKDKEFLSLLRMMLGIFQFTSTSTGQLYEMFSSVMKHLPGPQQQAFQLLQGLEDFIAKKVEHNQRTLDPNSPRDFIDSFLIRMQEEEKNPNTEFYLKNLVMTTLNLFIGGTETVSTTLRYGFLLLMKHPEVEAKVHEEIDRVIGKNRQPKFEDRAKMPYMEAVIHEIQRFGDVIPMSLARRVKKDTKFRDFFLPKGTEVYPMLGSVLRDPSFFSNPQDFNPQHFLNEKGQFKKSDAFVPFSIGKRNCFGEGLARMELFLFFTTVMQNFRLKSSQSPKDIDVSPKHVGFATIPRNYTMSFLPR

CYP2A13 [3] = molecular target: T1, CYP2A13; assay: Inhibition of CYP2A13-mediated coumarin 7-hydroxylation, enzymatic reconstitution assay; assay type: biochemical
Procedure: Inhibitory effect of plant extracts, fractions, subfractions and constituents was determined by inhibition assay on CYP2A6- and CYP2A13-mediated coumarin 7-hydroxylation. The recombinant human CYP2A6, CYP2A13 and rat NADPH-dependent cytochrome P450 oxidoreductase (CYPOR) proteins were expressed, purified, according to the methods previously described. […] Rate of 7-hydroxycoumarin product formation was measured on spectrofluorometer (Shimadzu, Kyoto, Japan) at λex = 355 nm, λem = 460 nm. Inhibition effects were determined by incubation with extracts, fractions or purified compounds with coumarin substrate in the reaction mixture and calculated as per cent relative inhibition compared with vehicle control reaction[20] and IC50 values were calculated using GraphPad Prism 5 (GraphPad Software Inc., La Jolla, CA).
as §1

CYP2A13 [4] = molecular target: T1, CYP2A13; assay: Inhibition of CYP2A13-mediated nicotine metabolism; assay type: biochemical; settings: compound at IC50 value; nicotine 50 μM; 30 min; Supplemental Figure S2
Procedure: mixture with nicotine substrate (a final concentration of 50 μM) prior to initiation of each reaction with 50 μM NADPH at room temperature. Each reaction was terminated by addition of ice-cold acetronitrile at 30 min incubation and 50 pmol 7-hydroxycoumarin as internal standard was added. The reaction was centrifuged (12,000 rpm, 10 min, 4 °C) and 20 μl of each sample was analyzed on symmetry RP-C18 column (3.9×150 mm). Gradient condition was isocratic of 12% ACN: 2-propanol (7:3) in 10 mM potassium phosphate buffer (pH 7.4) at flow rate of 1 ml/min. The nicotine peak area in each reaction was compared with that of time zero. The enzyme activity was determined as percent substrate consumption over 30 min. The reactions were […]
(1 picture or pasted object on this page, not shown here)

CYP2A6 [5] = molecular target: T2, CYP2A6; settings: ref Prasopthum et al., 2015, cited from earlier work
CYP2A13 [6] = molecular target: T1, CYP2A13; assay: Effects of trapping agents and dialysis on inactivation of CYP2A13; assay type: biochemical; settings: CYP2A13 inhibition reaction mixture, probe coumarin, compound 10 µM
Procedure: as §1
To explore whether inactivation of CYP2As by thiophenes 9–11 and of CYP2A13 by hirsutinolides 5-8 could be reversed, the removal of reversible inhibitory compounds by dialysis and addition of trapping agents (GSH, semicarbazide, catalase or potassium ferricyanide) in the inhibition reaction mixture were performed. […] Similarly, mechanism-based inactivation of both CYP2A6 and CYP2A13 by thiophenes 9–11 could not be reversed (Table 3).

CYP2A6 [7] = molecular target: T2, CYP2A6; set-up: made in house; settings: ref Prasopthum et al., 2015, cited from earlier work

kinact (CYP2A13 [1]): 0.001 s⁻¹ | KI (inactivation) (CYP2A13 [1]; read-out: CYP2A13 KI (inactivation constant)): 3.6 ± 1.05 µM | CYP2A13 Mode of inhibition (CYP2A13 [3]): Mixed type | IC50 (CYP2A13 [3]; 10-min pre-incubation in the presence of NADPH, read-out: IC50 CYP2A13 Pre-incubation): 7.66 ± 0.98 µM | IC50 (CYP2A13 [3]; coincubation, coumarin 2 µM, read-out: IC50 CYP2A13 Coincubation): 20.9 ± 1.46 µM | Ki (CYP2A13 [3]; coumarin 0–40 µM): 7.97 ± 0.78 µM | inhibition of CYP2A13-mediated nicotine metabolism (CYP2A13 [4]): showed inhibition | activity at 10 µM (CYP2A13 [6]; read-out: Per cent remaining activity, 70 μM K3Fe(CN)6): 25.9 ± 1.87% | activity at 10 µM (CYP2A13 [6]; read-out: Per cent remaining activity, 2 mM GSH): 33.6 ± 4.8% | activity at 10 µM (CYP2A13 [6]; read-out: Per cent remaining activity, 5 mM semicarbazide): 25 ± 3.81% | activity at 10 µM (CYP2A13 [6]; read-out: Per cent remaining activity, 2000 U catalase): 26.6 ± 3.86% | activity at 10 µM (CYP2A13 [6]; read-out: Per cent remaining activity, Dialysis (+) NADPH): 22.8 ± 1.13% | activity at 10 µM (CYP2A13 [6]; read-out: Per cent remaining activity, Dialysis (−) NADPH): 85.3 ± 4.98% | activity at 10 µM (CYP2A13 [6]; read-out: Per cent remaining activity, Pre-incubation): 28.4 ± 2.92%
SMILES: C/C=C(\C)C(=O)OC1CC(C)C2(O)CCC(C)(/C=C3/OC(=O)C(COC(C)=O)=C31)O2 (stereo not drawn) [Hirsutinolide 6, 8α-tigloyloxyhirsutinolide-13-O-acetate]
inhibition of CYP2A6-mediated nicotine metabolism (CYP2A6 [2]): showed inhibition | KI (inactivation) (CYP2A6 [5]; read-out: CYP2A6 KI (inactivation constant)): 15.4 ± 1.8 µM | CYP2A6 Kinact (CYP2A6 [5]): 0.03 ± 0.01^b | IC50 (CYP2A6 [7]; 10-min pre-incubation in the presence of NADPH, read-out: IC50 CYP2A6 Pre-incubation): 20.8 ± 1.1 µM | IC50 (CYP2A6 [7]; coincubation, coumarin 2 µM, read-out: IC50 CYP2A6 Coincubation): 37.8 ± 3.5 µM | Ki (CYP2A6 [7]; coumarin 0–40 µM): 30.6 ± 1.5 µM | CYP2A6 Mode of inhibition (CYP2A6 [7]): Mixed type^b
